Measurements reported in ChEMBL document CHEMBL3112568, “Synthesis, antifungal activities and molecular docking studies of novel 2-(2,4-difluorophenyl)-2-hydroxy-3-(1H-1,2,4-triazol-1-yl)propyl dithiocarbamates” (2014).
Values after ≈ are worked out from the molar mass of the structure shown.

Experiments:
Type in all cases: functional
[1] = tested on: Candida parapsilosis; test: Antifungal activity against Candida parapsilosis by micro-broth dilution method; conditions: Lodderomyces parapsilosis
[2] = tested on: Aspergillus fumigatus; test: Antifungal activity against Aspergillus fumigatus by micro-broth dilution method
[3] = tested on: Candida albicans; test: Antifungal activity against Candida albicans SC5314 after 24 hrs by micro-broth dilution method; conditions: SC5314, 24 h
[4] = tested on: Cryptococcus neoformans; test: Antifungal activity against Cryptococcus neoformans after 72 hrs by micro-broth dilution method
[5] = tested on: Nakaseomyces glabratus; test: Antifungal activity against Candida glabrata by micro-broth dilution method
[6] = tested on: Candida albicans; test: Antifungal activity against Candida albicans Y0109 after 24 hrs by micro-broth dilution method; conditions: Y0109, 24 h
[7] = tested on: Nannizzia gypsea; test: Antifungal activity against Microsporum gypseum by micro-broth dilution method
[8] = tested on: Trichophyton rubrum; test: Antifungal activity against Trichophyton rubrum by micro-broth dilution method

Row | SMILES | MIC80 [1] | MIC80 [2] | MIC80 [3] | MIC80 [4] | MIC80 [5] | MIC80 [6] | MIC80 [7] | MIC80 [8]
1 | OC(CSC(=S)N1CCN(c2cccc(F)c2)CC1)(Cn1cncn1)c1ccc(F)cc1F (racemic) | 0.5 µg/mL (≈ 1.01 µM) | 8 µg/mL (≈ 16.2 µM) | ≤ 0.125 µg/mL | ≤ 0.125 µg/mL | 0.25 µg/mL (≈ 0.507 µM) | ≤ 0.125 µg/mL | 4 µg/mL (≈ 8.1 µM) | 0.5 µg/mL (≈ 1.01 µM)
2 | CN(CCO)C(=S)SCC(O)(Cn1cncn1)c1ccc(F)cc1F (racemic) | ≤ 0.125 µg/mL | > 64 µg/mL | ≤ 0.125 µg/mL | 8 µg/mL (≈ 20.6 µM) | ≤ 0.125 µg/mL | ≤ 0.125 µg/mL | 16 µg/mL (≈ 41.2 µM) | 4 µg/mL (≈ 10.3 µM)
3 | CN(C/C=C/C#CC(C)(C)C)Cc1cccc2ccccc12 [TERBINAFINE] | 1 µg/mL (≈ 3.43 µM) | 0.25 µg/mL (≈ 0.858 µM) | 4 µg/mL (≈ 13.7 µM) | 0.25 µg/mL (≈ 0.858 µM) | 2 µg/mL (≈ 6.86 µM) | 16 µg/mL (≈ 54.9 µM) | 0.0625 µg/mL (≈ 0.214 µM) | 0.0625 µg/mL (≈ 0.214 µM)
4 | COc1cccc(N2CCN(C(=S)SCC(O)(Cn3cncn3)c3ccc(F)cc3F)CC2)c1 (racemic) | 0.5 µg/mL (≈ 0.989 µM) | 16 µg/mL (≈ 31.6 µM) | ≤ 0.125 µg/mL | 0.25 µg/mL (≈ 0.494 µM) | 0.25 µg/mL (≈ 0.494 µM) | ≤ 0.125 µg/mL | 4 µg/mL (≈ 7.91 µM) | 1 µg/mL (≈ 1.98 µM)
5 | OC(CSC(=S)N1CCOCC1)(Cn1cncn1)c1ccc(F)cc1F (racemic) | 0.25 µg/mL (≈ 0.624 µM) | 16 µg/mL (≈ 40 µM) | ≤ 0.125 µg/mL | 0.25 µg/mL (≈ 0.624 µM) | ≤ 0.125 µg/mL | ≤ 0.125 µg/mL | 8 µg/mL (≈ 20 µM) | 8 µg/mL (≈ 20 µM)
6 | Cc1ccccc1N1CCN(C(=S)SCC(O)(Cn2cncn2)c2ccc(F)cc2F)CC1 (racemic) | 1 µg/mL (≈ 2.04 µM) | > 64 µg/mL | 0.25 µg/mL (≈ 0.511 µM) | 0.5 µg/mL (≈ 1.02 µM) | 0.5 µg/mL (≈ 1.02 µM) | ≤ 0.125 µg/mL | 16 µg/mL (≈ 32.7 µM) | 2 µg/mL (≈ 4.08 µM)
7 | OC(CSC(=S)NC1CC1)(Cn1cncn1)c1ccc(F)cc1F (racemic) | 1 µg/mL (≈ 2.7 µM) | > 64 µg/mL | 1 µg/mL (≈ 2.7 µM) | 64 µg/mL (≈ 173 µM) | 8 µg/mL (≈ 21.6 µM) | 1 µg/mL (≈ 2.7 µM) | > 64 µg/mL | 64 µg/mL (≈ 173 µM)
8 | OC(Cn1cncn1)(Cn1cncn1)c1ccc(F)cc1F [FLUCONAZOLE] | 2 µg/mL (≈ 6.53 µM) | > 64 µg/mL | 0.25 µg/mL (≈ 0.816 µM) | 1 µg/mL (≈ 3.27 µM) | 2 µg/mL (≈ 6.53 µM) | 0.25 µg/mL (≈ 0.816 µM) | 32 µg/mL (≈ 104 µM) | 4 µg/mL (≈ 13.1 µM)
9 | OC(CSC(=S)N1CCN(c2ccc(F)cc2)CC1)(Cn1cncn1)c1ccc(F)cc1F (racemic) | 0.25 µg/mL (≈ 0.507 µM) | 16 µg/mL (≈ 32.4 µM) | 0.25 µg/mL (≈ 0.507 µM) | ≤ 0.125 µg/mL | 0.25 µg/mL (≈ 0.507 µM) | ≤ 0.125 µg/mL | 2 µg/mL (≈ 4.05 µM) | 1 µg/mL (≈ 2.03 µM)
10 | CC(C)NC(=S)SCC(O)(Cn1cncn1)c1ccc(F)cc1F (racemic) | 1 µg/mL (≈ 2.68 µM) | > 64 µg/mL | 2 µg/mL (≈ 5.37 µM) | 64 µg/mL (≈ 172 µM) | 4 µg/mL (≈ 10.7 µM) | 1 µg/mL (≈ 2.68 µM) | > 64 µg/mL | 64 µg/mL (≈ 172 µM)
11 | OC(CSC(=S)N1CCN(c2ccccc2F)CC1)(Cn1cncn1)c1ccc(F)cc1F (racemic) | 2 µg/mL (≈ 4.05 µM) | > 64 µg/mL | 0.5 µg/mL (≈ 1.01 µM) | 0.5 µg/mL (≈ 1.01 µM) | 0.5 µg/mL (≈ 1.01 µM) | 0.5 µg/mL (≈ 1.01 µM) | > 64 µg/mL | 1 µg/mL (≈ 2.03 µM)
12 | O=C1CCN(C(=S)SCC(O)(Cn2cncn2)c2ccc(F)cc2F)CC1 (racemic) | 1 µg/mL (≈ 2.42 µM) | 8 µg/mL (≈ 19.4 µM) | ≤ 0.125 µg/mL | 2 µg/mL (≈ 4.85 µM) | ≤ 0.125 µg/mL | ≤ 0.125 µg/mL | 32 µg/mL (≈ 77.6 µM) | 2 µg/mL (≈ 4.85 µM)
13 | CN(C)C(=S)SCC(O)(Cn1cncn1)c1ccc(F)cc1F (racemic) | 0.5 µg/mL (≈ 1.39 µM) | 8 µg/mL (≈ 22.3 µM) | ≤ 0.125 µg/mL | 0.5 µg/mL (≈ 1.39 µM) | ≤ 0.125 µg/mL | ≤ 0.125 µg/mL | 2 µg/mL (≈ 5.58 µM) | 0.5 µg/mL (≈ 1.39 µM)
